Experimental data taken from ChEMBL document CHEMBL1126365, “Mechanism-based inactivation of mandelate racemase by propargylglycolate” (Bioorg Med Chem Lett, 1992).

Key:
Pseudomonas putida [1] = assay: Kinetic inactivation against mandelate racemase from Pseudomonas putida ATCC 12633
Pseudomonas putida [2] = assay: Kinetic inactivation against mandelate racemase from Pseudomonas putida ATCC 12633 in a solution of D2O

- K inact (Pseudomonas putida [1]): 0.28 min⁻¹
- K inact (Pseudomonas putida [2]): 0.2 min⁻¹
Structure (SMILES): O=C(O)[C@@H](O)c1ccccc1
